# Test results published in patent US9133236B2, “Connective tissue stimulating peptides” (priority 2002, dated 2015).
# Where no end group is shown, it is not given here. [ ]: non-standard residue; d: D form. Hyp = O=C(O)[C@@H]1C[C@@H](O)CN1
# What was measured:
# tibia = assay: Periosteal tibia injection, DEXA bone mineral density and content; format: in vivo, male Wistar rats; conditions: 7 days post injection; for changes in BMC (bone mineral content) / changes in BMD (bone mineral density): treated whole tibia in all regions, DEXA, SKELITE powder carrier
# Method: BCSP1 peptide and BCSP4 peptide were tested at four dose levels, 0.05, 0.5, 1.0 & 5.0 mg/rat or vehicle, n=6 per dose. Sixty male Wistar rats, weighing 90-110 grams, were randomized into two groups, ear tagged and left undisturbed for 1 week prior to the procedure. Food and water are administered ad libitum. Animals weighed 150-190 grams at time of injection. Group 1 received injections of BCSP4 peptide on day 8 of acclimation. Group 2 received injections of BCSP1 peptide on day 9 of acclimation. Dissections were conducted on respective days, 7 days post injection.
# The peptides were dissolved in sterile water at 0.05-5 mgs per 100 microliter volume, added to 0.5 mg of a dry synthetic biomaterial compound (SKELITE™) powder and lyophilized onto the carrier. Samples are resuspended in 100 microliters of sterile saline for injection. Delivery of the test compound was made under a general anaesthetic of Isofluorane with oxygen. Using a 0.5 cc insulin syringe fitted with a 28G1/2″ needle, the peptides were deposited onto the periosteal surface of the right medial tibia surface proximal to the knee under the Tibialis cranialis muscle group. Control animals are injected with saline vehicle and a synthetic biomaterial compound (SKELITE™) carrier.
# Animals were euthanized with carbon dioxide and dissected to remove the treated right tibia and contra-lateral control limb, 7 days post injection. Muscle and soft connective tissue is dissected away prior to fixation in 70% ethanol.
# Each tibia set was scanned as a pair for bone mineral density (BMD) and bone mineral content (BMC) on a Norland Eclipse DEXA scanner in small subject mode. Percent increases in local BMD (FIG. 5) were calculated against the untreated contra-lateral limb. […] This increase in physical size reduces the overall percentage increase in BMD (BMD=BMC/cm^2). Each tibia was analyzed in 3 contiguous regions, proximal, medial and distal as well as whole tibia measurements. Comparisons and statistical assessment of dose versus vehicle were conducted for each peptide for bone forming activity using a standard student t-test.
# bovine chondrocytes = assay: [3H] thymidine incorporation assay, bovine primary chondrocyte cultures; format: cell-based
# Method: (§1) BCSP1 was tested in vitro to determine effect on bovine and human primary chondrocyte cultures using a [3H] thymidine incorporation assay. Cells were seeded at […] for human chondrocytes (96 well plate) and allowed to attach for 48 h (medium containing 10% fetal bovine serum (FBS). Pre-confluent cells were then treated in quaduplicate with BCSP1 (0, 10, 20 and 40 ng/ml for 48 hrs and with [3H]thymidine ([…]) for the last 24 hrs (medium containing 2% FBS). The culture medium used was Dulbecco's Modified Eagle Medium (DMEM) (Gibco, Cat. #23800) containing 200 units/ml Penicillin, 200 ug/ml Streptomycin and 10% FBS for growth and 2% FBS for dosing.
# human chondrocytes = assay: [3H] thymidine incorporation assay, human primary chondrocyte cultures; format: cell-based
# Method: as §1
# [1] = system: osteoblast cultures derived from rat bone marrow; assay: Osteoblast proliferation, BrdU incorporation, bone marrow derived cultures; format: cell-based; conditions: 24 hr exposure
# Method: (§2) BCSP1 was tested in three assays to understand the mechanism of bone stimulation by the peptide. Dose ranges in the microgram range were used to generate dose response curves. All assays used primary rat osteoblast cultures from bone marrow or calvaria.
# (§3) Osteoblast proliferation was accessed using a DNA based assay which measures bromodeoxyuridine (BrdU) incorporation. Differentiation of osteoblasts was determined using the mid to late stage bone marker Alkaline Phosphatase. Late stage differentiation and mineralization was determined using a Bone Nodule formation assay (calvaria only).
# Cells were cultured for four days prior to a 24 hr exposure to the peptide (FIG. 11).
# [2] = system: osteoblast cultures derived from rat calvaria; assay: Osteoblast proliferation, BrdU incorporation, calvaria derived cultures; format: cell-based; conditions: dose range of 1.3-6.4 ng/ml; 24 hr exposure
# Method: as §2, §3
# Cells were cultured for four days prior to a 24 hr exposure to the peptide at a dose range from 100 μg/ml to 1.3 ng/ml of peptide (FIG. 12).
# [3] = system: rat bone marrow derived osteoblasts; assay: Cell bound alkaline phosphatase, bone marrow derived osteoblasts; format: cell-based
# Method: as §2, §3
# (§4) Cell bound alkaline phosphatase from cell lysates of rat bone marrow derived osteoblasts and rat calvaria derived osteoblasts. BCSP1 was provided at a dose range of 100 μg/ml to 1 μg/mL. Cells were cultured for 3 days prior to a 48 hr exposure to the peptide.
# [4] = system: rat calvaria derived osteoblasts; assay: Cell bound alkaline phosphatase, calvaria derived osteoblasts; format: cell-based; conditions: rat calvaria cultures (RC); 10 μg/ml to 100 μg/ml; 48 hr exposure
# Method: as §2, §3, §4
# rat calvaria cultures = assay: Bone nodule formation assay, alizarin red staining; format: cell-based; conditions: 10 days
# Method: as §2, §3
# Rat calvaria cultures were maintained for 10 days in the presence of BCSP1 at a dose range of 1 ng/ml to 100 μg/ml with dosing provided at each fluid change. Mineralized bone nodules were detected by staining with alizarin red. Image analysis was conducted with an Alpha Imager 2000™ to count and quantify nodule area. […] Increased alkaline phosphatase would lead to increases in total mineralized area.
substance,measurement,setting,value
"NGLPGPIGP* (NGLPGPIG[Hyp]) [BCSP1, P* is hydroxyproline]",bone size,tibia; treated tibia,increase in bone size
same,proliferation of chondrocyte cells,"bovine chondrocytes; 10, 20 and 40 ng/ml, 48 hrs",dose dependent increase
same,effect on proliferation,bovine chondrocytes; doses in the nanogram range,up to 3 fold
same,proliferation of chondrocyte cells,"human chondrocytes; 10, 20 and 40 ng/ml, 48 hrs",dose dependent increase
same,effect on proliferation,human chondrocytes; doses in the nanogram range,up to 3 fold
same,increase in DNA synthesis,"[1]; rat bone marrow osteoblasts, up to 100 μg/ml",≤ 75%
same,osteoblast proliferation,[1]; to 100 μg/ml,dose response increase
same,osteoblast proliferation,[2],statistically significant increase
same,specific activity of alkaline phosphatase,"[3]; further experimentation, not shown, culture not specified",increase in specific activity
same,alkaline phosphatase over control (vehicle),"[3]; rat bone marrow cultures (RBM), 1 μg/ml to 100 μg/ml, 48 hr exposure",dose dependent response
same,alkaline phosphatase over control (vehicle),[4],dose dependent response
same,number of bone nodules formed,rat calvaria cultures; 1 ng/ml and 10 ng/ml range,slight increase
same,number of bone nodules formed,rat calvaria cultures; 1 ng/ml to 100 μg/ml,minimal changes
same,total mineralized bone nodule area (size of nodules),"rat calvaria cultures; 1 ng/ml to 100 μg/ml, dose dependent",significantly increased
PGPIG [BCSP7],changes in BMC (bone mineral content),tibia,Significant changes
same,changes in BMD (bone mineral density),tibia,Significant changes
PGPIGP [BCSP9],changes in BMC (bone mineral content),tibia,Significant changes
same,changes in BMD (bone mineral density),tibia,Significant changes
PGPIGPPGPR [BCSP10],changes in BMC (bone mineral content),tibia,Significant changes
same,changes in BMD (bone mineral density),tibia,Significant changes
